# Key:
# P. aeruginosa CDC-0110 = assay: Broth microdilution MIC in iron-depleted CAMHB (IDM); assay type: cell-based; conditions: Pseudomonas aeruginosa, CDC0110, read-out: Minimum Inhibitory Concentration, P. aeruginosa CDC-0110
# Description: (§1) To determine the ability of test compounds to inhibit the growth bacterial strains under conditions of iron-depletion, classic cell based broth microdilution minimum inhibitory concentration (MIC) assays were employed. MIC assays are performed according to CLSI methods except where otherwise noted (CLSI, 2018 and CLSI, 2019). The reference type strain E. coli ATCC 25922 was used to determine the ability of the PBP inhibitors to inhibit the growth of Enterobacteriaceae. Wild-type P. aeruginosa ATCC 27853, A. baumannii ATCC 17978 and A. baumannii ATCC 19606, along with the hyper-permeable P. aeruginosa ATCC 35151, an engineered efflux pump-compromised strain of P. aeruginosa (ΔmexAB-oprM), and an engineered efflux-pump compromised strain of A. baumannii IL123 (ABΔ3-ARAEcPore) were used to determine the ability of PBP inhibitors to penetrate the outer membrane of P. aeruginosa and A. baumannii and assess antibacterial activity against these important gram-negative organisms.
# (§2) Briefly, cryo-preserved bacterial cultures of challenge strains are streaked for isolation on appropriate agar medium, in this case cation-adjusted Mueller Hinton agar. Following incubation to allow growth of the colonies, plates are sealed with parafilm and stored refrigerated for up to two weeks. For preparation of assay inoculum and to ensure low variability, at least 5 colonies are picked from the agar plates with an inoculating loop and aseptically transferred to a culture tube containing 3 mL of iron-depleted cation-adjusted Mueller Hinton broth (IDM)—see below for IDM preparation. The broth culture is grown for 3-5 hours at 37° C. with shaking at 200 rpm. Meanwhile, 2-fold serial dilutions of test compounds are conducted in a 96-well plate with a final volume of 75 μL per well at 2-fold the final desired concentration. After the dilution plates are set up the growing cultures are then diluted in a cuvette containing IDM and the optical density is measured at 600 nm. The inoculum is diluted such that 75 μL of this culture in IDM results in a starting bacterial concentration of 2-8×10^5 CFU/mL when added to the dilution plates. The plates are incubated for 16-20 hours for Enterobacteriaceae and Pseudomonas and 20-24 hours for Acinetobacter at 37° C. The MIC values are read visually as the lowest concentration well with no bacterial growth.
# (§3) Method for Iron-Depleted Cation-Adjusted Mueller Hinton Broth (IDM) Preparation:
# (§4) • Prepare cation-adjusted Mueller Hinton broth as per the manufacturer's recommendations and autoclave. • Add 100 g/L Chelex 100 resin, cover with foil and incubate with stirring for 2 hours • Remove Chelex 100 resin by filtration with 0.45 μm filter flask • Add the following back to the medium: • CaCl2 dihydrate: 82.5 mg/L • MgCl2 hexahydrate: 94.1 mg/L • ZnSO4: 10 μM • Adjust pH of medium to 7.3 with 5 N HCl • Sterilize using a 0.22 µm filter flask
# [1] = system: A. baumannii CDC-0033 producing NDM-1, and OXA-94; assay: as above; assay type: cell-based; conditions: Acinetobacter baumannii, read-out: Minimum Inhibitory Concentration, CDC-0033
# Description: (§5) Example IV: In Vitro Antibacterial Assays in Iron-Depleted Cation-Adjusted Mueller-Hinton Broth
# as §1, §2, §3, §4
# P. aeruginosa ATCC 35151 = assay: as above; assay type: cell-based; conditions: Pseudomonas aeruginosa, ATCC35151; iron-depleted MHB (IDM); hyper-permeable strain; read-out: Minimum Inhibitory Concentration, P. aeruginosa ATCC 35151
# Description: as §5, §1, §2, §3, §4
# [2] = system: A. baumannii CDC-0083 producing NDM-1, PER-7, OXA-23, and OXA-69; assay: as above; assay type: cell-based; conditions: Acinetobacter baumannii, read-out: Minimum Inhibitory Concentration, CDC-0083
# Description: as §5, §1, §2, §3, §4
# [3] = system: A. baumannii CDC-0036 OXA-65, and OXA-24; assay: as above; assay type: cell-based; conditions: Acinetobacter baumannii, read-out: Minimum Inhibitory Concentration, CDC-0036
# Description: as §5, §1, §2, §3, §4
# P. aeruginosa ATCC 27853 = assay: as above; assay type: cell-based; conditions: Pseudomonas aeruginosa, ATCC27853, read-out: Minimum Inhibitory Concentration, P. aeruginosa ATCC 27853
# Description: as §5, §1, §2, §3, §4
# A. baumannii ATCC 17978 = assay: as above; assay type: cell-based; conditions: Acinetobacter baumannii, ATCC17978, read-out: Minimum Inhibitory Concentration, ATCC 17978
# Description: as §5, §1, §2, §3, §4
# [4] = system: P. aeruginosa (ΔmexAB-oprM); assay: as above; assay type: cell-based; conditions: Pseudomonas aeruginosa, read-out: Minimum Inhibitory Concentration, P. aeruginosa ΔmexAB-OprM
# Description: as §5, §1, §2, §3, §4
# [5] = system: P. aeruginosa CDC-0054 producing VIM-4, OXA-50, and PAO; assay: as above; assay type: cell-based; conditions: Pseudomonas aeruginosa, read-out: Minimum Inhibitory Concentration, P. aeruginosa CDC-0054
# Description: as §5, §1, §2, §3, §4
# A. baumannii ATCC 19606 = assay: as above; assay type: cell-based; conditions: Acinetobacter baumannii, ATCC19606, read-out: Minimum Inhibitory Concentration, ATCC 19606
# Description: as §5, §1, §2, §3, §4
# [6] = system: A. baumannii CDC-0045 producing TEM-1D, OXA-23, and OXA-69; assay: as above; assay type: cell-based; conditions: Acinetobacter baumannii, read-out: Minimum Inhibitory Concentration, CDC-0045
# [7] = Bocillin-FL fluorescence polarization competition binding assay, A. baumannii PBP3; conditions: fluorescence polarization competition binding assay using Bocillin-FL; column 3; read-out: 4. baumannii PBP1a Potency
# From the text: Example I: Experimental Method for Penicillin-Binding Protein Binding Assays with Bocillin-FL Via Fluorescence Polarization
# To determine the ability of boronic acid-based test PBP inhibitors to bind Penicillin Binding Proteins (PBPs), Bocillin-FL (fluorescently-labeled penicillin V; ThermoFisher Scientific) was used in a fluorescence polarization (FP) competition binding assay to assess inhibitor binding to PBP2, PBP3 or PBP4 from Escherichia coli (K12), PBP3 from Pseudomonas aeruginosa (PA01), PBP1a, PBP2 and PBP3 from Acinetobacter baumannii (ATCC 19606), and PBP2 from Neiserria gonorrheae (FA19). PBPs were cloned and purified as described previously (E. coli PBPs, King, D. T, et al., ACS Infectious Diseases 2015, 1, 175-184; P. aeruginosa PBP3, Han et. al., PNAS 2010, 107 (51), 22002-22007; A. baumannii PBPs, Penwell et. al., Antimicrob. Agents Chemother. 2015, 59 (3), 1680-1689; N. gonorrhoeae PBP2, Singh et. al., J Biol. Chem. 2019, 294 (38), 14020-14032). To establish assay conditions for competition binding, enzyme titration/saturation binding experiments were initially performed. Bocillin-FL was prepared at 0.2 μM in a buffer comprised of 50 mM Hepes (pH 8.0), 300 mM NaCl and 5% (v/v) glycerol for reactions with E. coli, P. aeruginosa and N. gonorrhoeae PBPs, and 25 mM Tris (pH 8.0), 200 mM NaCl and 10% (v/v) glycerol and 0.005% (v/v) Tween 20 for reactions with A. baumannii PBPs. Saturation binding was performed by mixing 40 μl of PBP solutions ranging in concentrations from 0-24 μM with 40 μl of the 0.2 μM Bocillin-FL solution, in individual wells of a black 384-well microplate. FP was measured immediately upon mixing (Excitation, 490 nm; Emission, 520 nm; g-factor, 0.96), using a Cytation3 (BioTek) microplate reader and measured continuously for up to 120 minutes. […] The competition binding assay (80 μl final volume) was validated using beta-lactams and PBPs at final concentrations of: 1.5 μM, E. coli PBP3; 0.75 μM, P. aeruginosa PBP3; 1 μM A. baumannii PBP1a; 2.5 μM A. baumannii PBP2; 0.2 μM A. baumannii PBP3; and […] N. gonorrhoeae PBP2. Bocillin-FL was at 0.1 μM (0.05 μM with A. baumannii PBP1a) and beta-lactam concentrations ranged from 0-1000 μM. […] Bocillin-FL was added and the FP immediately measured for up to 60 minutes (90 minutes for E. coli PBP2). […] The beta-lactam potency was reported as the concentration of beta-lactam required to reduce the amount of PBP bound-Bocillin-FL by 50% (EC50). […] Binding assays for boronic acid PBP inhibitors were performed in an identical fashion for the respective PBPs
structure (smiles),measurement,setting,value
"CCN1CCN(C(=O)N[C@@H](C(=O)N[C@H]2Cc3ccc(F)c(C(=O)O)c3OB2O)c2c(F)c(F)c(O)c(O)c2Cl)C(=O)C1=O [Example 228, (R)-3-((R)-2-(2-chloro-5,6-difluoro-3,4-dihydroxyphenyl)-2-(4-ethyl-2,3-dioxopiperazine-1-carboxamido)acetamido)-7-fluoro-2-hydroxy-3,4-dihydro-2H-benzo[e][1,2]oxaborinine-8-carboxylic acid]",MIC,P. aeruginosa CDC-0110,0.5 to 1 mg/L
same,MIC,[1],2 to 4 mg/L
same,MIC,P. aeruginosa ATCC 35151,0.25 mg/L
same,MIC,[2],2 to 4 mg/L
same,MIC,[3],2 to 4 mg/L
same,MIC,P. aeruginosa ATCC 27853,0.5 to 1 mg/L
same,MIC,A. baumannii ATCC 17978,0.5 to 1 mg/L
same,MIC,[4],0.25 mg/L
same,MIC,[5],2 to 4 mg/L
same,MIC,A. baumannii ATCC 19606,0.25 mg/L
same,MIC,[6],2 to 4 mg/L
same,EC50,[7],10 to 30 µM
